According to patent US10047345B2, “Culturing of mesenchymal stem cells with FGF4 and nicotinamide” (Gamida-Cell Ltd., priority 2012, dated 2018):

Columns and labels:
Type in all cases: cell-based, human
mesenchymal stem cells [1] = test: Surface expression of VCAM1/CD106 and CD54 by FACS; conditions: versus MSCs grown without nicotinamide
Experimental: Mesenchymal stem cells were isolated using plastic adherence method, as described above and cultured for several passages with fetal bovine serum, ±NAM. The cells were selected in the presence of NAM. At about 80% confluence, adherent cells were collected following trypsin treatment, counted, characterized and re-seeded at a concentration of 1×10^3 cells/cm^2. Following Trypsin treatment the cells were analyzed for CD 106 expression in FACS using anti-human CD 106 PE antibodies. Following Trypsin treatment the cells were analyzed for CD54 expression in FACS using anti-human CD54 antibodies.

mesenchymal stem cells [2] = test: Large batch and serum batch MSC culture with nicotinamide (cell count)
Experimental: Cell number was measured using Cedex Automated Cell Counter (Innovatis). The cells were diluted 1:2 in Trypan Blue (Sigma) and cell number was measured automatically under microscope. Mesenchymal stem cells were isolated using plastic adherence method, as described above and cultured for several passages with fetal bovine serum, ±NAM. The cells were selected in the presence of NAM. At about 80% confluence, adherent cells were collected following trypsin treatment, counted, characterized and re-seeded at a concentration of 1×10^3 cells/cm^2.

[3] = system: bone marrow derived mesenchymal stem cells; test: Seeding, expansion, size and granularity of bone marrow derived MSCs with nicotinamide
Experimental: Bone marrow derived and adipose tissue derived mesenchymal cells were isolated based on their plastic adherence potential in expansion medium containing: High glucose DMEM and 10% Fetal Bovine Serum (FBS, Hyclone, Logan, Utah, USA) supplemented with 0.05 mg/ml Gentamicin (Sigma) and 2 mM L-glutamine (Biological Industries, Israel). Cells were allowed to adhere for 3-4 days and non-adherent cells were washed out with medium changes. The medium was further exchanged with fresh medium every 3-4 days. Once adherent cells reached approximately 80-90% confluency, they were detached with 0.25% trypsin-EDTA (Sigma), washed twice in DMEM and 10% Fetal Bovine Serum, with centrifugation, 400 g, 5 minutes, and replated at a 1:2 to 1:1000 dilution under the same culture conditions. Cell size was measured using Cedex Automated Cell Counter (Innovatis). The cells were diluted 1:2 in Trypan Blue (Sigma) and cell size was measured automatically under microscope. Following trypsin treatment, the cells were analyzed for granularicity by side scatter FACS. Cell number was measured using Cedex Automated Cell Counter (Innovatis). The cells were diluted 1:2 in Trypan Blue (Sigma) and cell number was measured automatically under microscope. […] At each passage and at each medium exchange, the cultures were supplemented with mesenchymal medium, nicotinamide and growth factors.

[4] = system: adipose-derived mesenchymal stem cells; test: Adipose-derived MSC proliferation and cell size with nicotinamide with or without FGF4; conditions: Cedex cell counter; 5 mM NAM, 50 ng/ml FGF4
Experimental: Cell number was measured using Cedex Automated Cell Counter (Innovatis). The cells were diluted 1:2 in Trypan Blue (Sigma) and cell number was measured automatically under microscope.

SMILES: NC(=O)c1cccnc1 [nicotinamide, Nicotinamide]
- CD54 expression (mesenchymal stem cells [1]): express less CD54
- VCAM1/CD106 expression (mesenchymal stem cells [1]): express more VCAM1/CD106
- effect on cell count in large batches of MSCs (mesenchymal stem cells [2]; large batch culture): evident on large batches
- dependence of the proliferative effect on serum batch (mesenchymal stem cells [2]; one of two experiments): not dependent on a particular batch of serum
- seeding efficacy (selection) of bone marrow derived MSCs [3]: increased the seeding efficacy
- expansion rate of bone marrow derived MSCs at low nicotinamide concentration ([3]; 0.1 mM nicotinamide, figure not shown): insignificant effect
- cell size and granularity of MSCs versus culture without nicotinamide ([3]; identical conditions without nicotinamide as comparison): smaller and less granular
- doubling time of MSCs ([3]; nicotinamide added from initiation of culture and at each passage): decreased
- prevalence of smaller size cells in adipose derived MSC cultures [4]: increased prevalence of smaller size cells
